Laboratory results reported in patent US20090286869A1, “Flavanols and B-Type Procyanidins and Inflammation” (Mars, Inc., priority 2005, published 2009).
Entries after “also recorded” stand apart in the source; their conditions may differ.

Columns and labels:
COX-2 mRNA [1] = experiment: RT-PCR of COX-2 mRNA in LPS and fMLP-treated U937-derived macrophages; format: cell-based, human; details: 10 μM each; for inhibition of the mRNA expression of COX-2: 2 h pretreatment before LPS 1 μg/ml priming or fMLP 10 μM stimulation, FIGS. 4 A-C; for order of suppression potency of the COX-2 mRNA expression induced by LPS and fMLP: FIG. 4C
Procedure: The human monocyte line U937 was obtained from the cell bank in Shanghai Institute of Biological Sciences, Chinese Academy of Sciences. Monocytic cells of 3-4 passages were grown to confluence in RPMI 1640 (GIBCO-BRL, Glasgow, Scotland) containing 10% fetal bovine serum at 37° C. in a 5% CO2 humidified incubator during all experimental procedures. Macrophages were pretreated with procyanidins B1 dimer, B2 dimer, A1 dimer, and flavanols (−)-catechin and (+)-epicatechin (each 10) for 2 h before LPS (1 μg·ml^−1) priming or fMLP (10 μM) stimulation for 2 h. The normal macrophages without LPS or fMLP treatment were considered as controls. They were then differentiated to macrophages in the medium containing 100 nM PMA and allowed to adhere for 48 h, after which they were fed with PMA-free medium and cultured for 24 h prior to use. Cells from different groups were collected and total RNA was prepared with TRI-REAGENT-LS extraction kit The expression of RNAs was determined by RT-PCR. Complementary DNA was created from RNA using TrueScript MMLV reverse transcriptase and oligo d (T) 18 primers. 5 μg RNA was included in each reaction.
The data are presented as means±SD and compared with ANOVA and least significant difference test using SPSS statistical program. The level of the statistical significance was set at P<0.05.

COX-2 mRNA [2] = experiment: Real-time quantitative RT-PCR of COX-2 mRNA in LPS-treated differentiated THP-1 cells; format: cell-based, human; details: differentiated THP-1 cells exposed to dimer B2 and LPS 1 μg/ml for 4 h; FIG. 1
Procedure: (§1) Human monocytic THP-1 cells from acute monocytic leukemia (American Type Culture Collection, Manassas, Va.) in RPMI 1640 medium (Life Technologies, Rockville, Md.), with 4.5 g/L glucose, 10 nM HEPES, 1 mM sodium pyruvate, and 50 μM 2-ME supplemented with 10% FBS, were cultured under a humidified 5% CO2 atmosphere at 37° C. For differentiation, THP-1 cells were plated at 1×10^6 cells/ml in the medium containing 100 nM PMA and allowed to adhere for 48 h, after which they were fed with PMA-free medium and cultured for 24 h prior to use. LPS was used at concentration of 1 μg/ml in the medium. sf9 cells were cultured in monolayer at 28° C. in Grace's supplemented medium with 10% heat-inactivated fetal bovine serum.
Total RNA was extracted from macropahges with TRIzol reagent (Invitrogen Corporation, Carlsbad, Calif.). Real-time quantitative RT-PCR was performed using the Opticon 2 (MJ Research Inc., Waltham, Mass.). Sequence specific PCR primers for COX-2 [accession no. NM_000963; forward primer: 5′-[…]-3′ [SEQ ID NO: 1]; reverse primer: 5′-[…]-3′ [SEQ ID NO: 2]] and GAPDH [accession no. NM_002046; forward primer: 5′-[…]-3′ [SEQ ID NO: 3]; reverse primer: 5′-[…]-3′ [SEQ ID NO: 4]] were designed using the Primer Premier software version 5.00. Standard curves were run on the same plate and the relative standard curve method was used to calculate the relative gene expression. […]

COX-2 protein expression = experiment: Western blot of LPS-induced COX-2 protein expression in THP-1 cells; format: cell-based, human; details: 50 μM, 30 min pretreatment with B2 followed by 4 hour LPS treatment
Procedure: as §1
5×10^6 cells were resuspended in modified RIPA lysis buffer (Tris-HCl 50 mM, pH 7.4 NaCl 150 mM, EDTA 1 mM, Na-deoxycholate 0.25%, NP-40 1%, PMSF 1 mM, Na3VO4 1 mM, NaF 1 mM, Aprotinin 10 μg/ml, leupeptin 5 μg/ml, pepstatin 5 μg/ml), and lysed cells on ice for 45 min. The lysate was centrifuged at 14,000×g for 15 min to sediment the particulate materials. The protein concentration of the supernatant was measured by the method of Lowry (Lowry et al., J. Biol. Chem. 193:265-267, 1951). Samples were electrophoresed in SDS/PAGE gels and separated proteins were transferred onto a PVDF membrane. […]

[3] = target: T1, recombinant human COX-2 enzyme (Homo sapiens, UniProt P35354); experiment: Determination of COX-2 enzyme activity (PGE2 RIA, baculovirus-expressed enzyme in sf9 cells); format: biochemical; details: baculovirus-expressed human recombinant COX-2; 10 μmol/L arachidonic acid; FIG. 3
T1 construct: made in house; host or cells: sf9 insect cells infected with hCOX-2 recombinant baculovirus
T1 sequence (P35354 18-604): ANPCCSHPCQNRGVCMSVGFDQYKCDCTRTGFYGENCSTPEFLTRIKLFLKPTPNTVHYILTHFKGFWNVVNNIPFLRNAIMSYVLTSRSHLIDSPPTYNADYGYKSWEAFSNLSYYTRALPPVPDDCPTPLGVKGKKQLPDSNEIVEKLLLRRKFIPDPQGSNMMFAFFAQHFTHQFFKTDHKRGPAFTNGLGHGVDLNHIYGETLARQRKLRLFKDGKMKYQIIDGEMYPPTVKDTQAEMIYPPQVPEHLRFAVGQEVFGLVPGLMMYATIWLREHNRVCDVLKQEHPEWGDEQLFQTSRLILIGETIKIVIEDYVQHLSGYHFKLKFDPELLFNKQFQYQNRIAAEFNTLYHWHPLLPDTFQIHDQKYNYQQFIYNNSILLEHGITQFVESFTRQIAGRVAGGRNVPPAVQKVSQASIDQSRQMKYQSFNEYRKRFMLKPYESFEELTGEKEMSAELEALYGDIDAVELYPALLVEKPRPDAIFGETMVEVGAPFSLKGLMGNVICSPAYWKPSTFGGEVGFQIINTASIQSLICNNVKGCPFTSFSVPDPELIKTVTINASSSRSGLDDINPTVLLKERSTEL
Procedure: The effect of procyanidin dimer B2 and NS398, a selective COX-2 inhibitor (positive control), on the activity of COX-2 was measured using baculovirus-expressed recombinant human COX-2 enzyme as previously described (Zhang et al., Acta. Pharmacol. Sin. 25(8):1000-1006, 2004). Briefly, 24 h after infecting sf9 cells with hCOX-2 recombinant baculovirus, the cells were collected and washed in HHBS. The assays were performed as follows. One milliliter of Hank's solution containing 1×10^5 COX-2 expressing cells plus 9×10^5 uninfected sf9 cells was dispensed per well of 24-well polypropylene plates. B2, NS398, or DMSO vehicle (10 μL) was added to the appropriate well containing the cell suspension. Following a 15-min drug or DMSO preincubation at 37° C., the cells were challenged with 10 μmol/L arachidonic acid
(Sigma) in ethanol and incubated for 10 min. Reactions were terminated by the addition of 100 μL of 1 mol/L HCl, neutralized with 100 μL of 1 mol/L NaOH. The cells were pelleted for 10 min at 300×g and the levels of PGE2 in the supernatant were determined by a PGE2-specific RIA (Beijing East Asia Institute of Immunology). The concentration of PGE2 was then determined by interpolation from a standard curve and inhibition calculated by comparison of the PGE2 production by drug-treated cells (B2 and NS398) with that of DMSO-treated cells.

| Compound | inhibition of the mRNA expression of COX-2 (COX-2 mRNA [1]) | order of suppression potency of the COX-2 mRNA expression induced by LPS and fMLP (COX-2 mRNA [1]) | levels of mRNA for COX-2 (COX-2 transcription) (COX-2 mRNA [2]) | LPS-induced COX-2 protein expression (COX-2 protein expression; FIG. 2) | LPS-induced COX-2 protein expression (COX-2 protein expression; FIG. 2, listed as 132) | effect on PGE2 synthesis (COX-2 enzyme activity) [3] |
| --- | --- | --- | --- | --- | --- | --- |
| Oc1cc(O)c2c(c1)O[C@H](c1ccc(O)c(O)c1)[C@H](O)[C@H]2c1c(O)cc(O)c2c1O[C@H](c1ccc(O)c(O)c1)[C@@H](O)C2 [B1, (−)-epicatechin-(4β-8)-(+)-catechin] | significant inhibition | (−)-catechin, (+)-epicatechin >B1, B2>A1 |  |  |  |  |
| Oc1cc(O)c2c(c1)OC1(c3ccc(O)c(O)c3)Oc3cc(O)c4c(c3C2C1O)OC(c1ccc(O)c(O)c1)C(O)C4 (centres unmarked) [A1, reference compound] | significant inhibition | (−)-catechin, (+)-epicatechin >B1, B2>A1 |  |  |  |  |
| Oc1cc(O)c2c(c1)O[C@@H](c1ccc(O)c(O)c1)[C@@H](O)C2 [(+)-epicatechin] | significant inhibition | (−)-catechin, (+)-epicatechin >B1, B2>A1 |  |  |  |  |
| Oc1cc(O)c2c(c1)O[C@H](c1ccc(O)c(O)c1)[C@H](O)[C@H]2c1c(O)cc(O)c2c1O[C@H](c1ccc(O)c(O)c1)[C@H](O)C2 [B2, (−)-epicatechin-(4β-8)-(−)-epicatechin] | significant inhibition | (−)-catechin, (+)-epicatechin >B1, B2>A1 | inhibitory effect; also recorded: reduced in a concentration-dependent manner | inhibited | inhibitory effect | not inhibited; also recorded: no inhibitory effect |
| (−)-catechin | significant inhibition | (−)-catechin, (+)-epicatechin >B1, B2>A1 |  |  |  |  |
